Read-outs that look alike come from different tables or passages of the source.
Key:
A1 receptor = conditions: literature, in words; cited from earlier work
adenosine A2 receptor = target: T1, adenosine A2 receptor (Rattus norvegicus, UniProt P30543); test: In vitro binding to adenosine A2 receptor, radioligand [3H]-CGS 21680
T1 construct: from tissue
Source text: (§1) Evaluation of in vitro binding to adenosine A1 and A2 receptors.

mice = test: DMCM induced seizures in mice, i.p. 30 min (protection against clonic convulsions); type: in vivo, male NMRI mice; conditions: Mus musculus, ip, 0.5 h, read-out: DMCM-ind. seizures (ED50, mg/kg)
Procedure: DMCM INDUCED SEIZURES IN MICE, I.P.30 min.
DMCM, 15 mg/kg, i.p., clonic convulsions
DMCM is an inverse agonist at the benzodiazepine receptor, presumably producing seizures by decreasing the potency of inhibition of the GABA receptor/benzodiazepine receptor/chloride ionophore complex (1).
15 mg/kg of DMCM dissolved in 0.02N HCl (1 mg/ml) is administered i.p. in a volume of 300 μl to male NMRI mice weighing 20±2 g. This induces two different responses: a) some animals manifest a brief loss of righting reflexes or take up an upright position in which they have a mild short clonus of the upper extremities, b) other animals manifest intense clonic and tonic convulsions of all extremities often followed by death. DMCM is administered 30 min. after an intraperitoneal injection of a test compound. The latency time for the presence of intense clonic and tonic convulsions and death is noted until 15 min. after administration of DMCM. At least 5 doses of each test compound are tested with 8 mice per dose.
This method is described in more detail in Eur. J. Pharmacol. 94, 117-124, 1983.

adenosine A1 receptor = target: T2, adenosine A1 receptor (Rattus norvegicus, UniProt P25099); test: In vitro binding to adenosine A1 receptor, radioligand [3H]-L-PIA; conditions: for Ki: [3H]-L-PIA radioligand; for Ratio A2/A1: ratio of Ki A2/A1
T2 construct: from tissue
T2 sequence (P25099 1-326): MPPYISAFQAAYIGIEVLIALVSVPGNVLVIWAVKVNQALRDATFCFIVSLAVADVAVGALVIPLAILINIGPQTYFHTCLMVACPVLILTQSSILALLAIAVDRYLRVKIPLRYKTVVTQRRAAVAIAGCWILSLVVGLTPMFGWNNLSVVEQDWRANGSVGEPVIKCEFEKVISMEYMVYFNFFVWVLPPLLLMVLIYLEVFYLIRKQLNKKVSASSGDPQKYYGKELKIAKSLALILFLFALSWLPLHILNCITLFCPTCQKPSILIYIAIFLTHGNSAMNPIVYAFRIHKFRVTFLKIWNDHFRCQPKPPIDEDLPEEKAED
Source text: as §1

[1] = [3H]-CGS 21680 radioligand, read-out: A2 Receptor Binding (Ki)
[2] = mice, test compound i.p. 30 min before DMCM 15 mg/kg i.p., dose protecting 50% against clonic convulsions

T1 sequence (P30543 whole entry): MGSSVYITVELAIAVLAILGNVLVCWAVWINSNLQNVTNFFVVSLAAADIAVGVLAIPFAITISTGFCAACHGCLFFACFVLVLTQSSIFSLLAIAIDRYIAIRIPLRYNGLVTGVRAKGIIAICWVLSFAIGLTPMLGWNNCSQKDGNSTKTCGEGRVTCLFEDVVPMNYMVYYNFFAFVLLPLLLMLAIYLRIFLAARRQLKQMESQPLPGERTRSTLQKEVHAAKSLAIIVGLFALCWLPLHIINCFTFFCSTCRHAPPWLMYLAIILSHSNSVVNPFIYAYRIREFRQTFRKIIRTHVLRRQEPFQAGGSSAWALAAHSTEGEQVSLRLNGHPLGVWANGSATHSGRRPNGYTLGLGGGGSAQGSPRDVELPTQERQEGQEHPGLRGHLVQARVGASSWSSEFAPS

Which “selectivity for the A1 receptor over the A2 receptor” value (A1 receptor) does the source give for OC[C@H]1O[C@@H](n2cnc3c(NC4CCCC4)nc(Cl)nc32)[C@H](O)[C@@H]1O [2-chloro-N-cyclopentyladenosine] here?
The value was “most selective for the A1 receptor over the A2 receptor”.

With OC[C@H]1O[C@@H](n2cnc3c(NC4CCCC4)ncnc32)[C@H](O)[C@@H]1O [CPA, N-(cyclopentyl)adenosine, reference compound] as the compound, how does the Ki (adenosine A2 receptor) read?
The Ki was 173 nM.

What about the ED50 (mice) of the same compound?
The ED50 was 0.2 mg/kg.

With OC[C@H]1O[C@@H](n2cnc3c(NN4CCCCC4)nc(Cl)nc32)[C@H](O)[C@@H]1O [Example 5, 2-Chloro-N-(1-piperidinyl)adenosine] as the compound, how does the Ki (adenosine A1 receptor) read?
Its Ki is 4 nM.

And the “Ratio A2/A1” value (adenosine A1 receptor)?
The value was 173.

What about the Ki (adenosine A2 receptor; [1]) of the same compound?
Its Ki is 691 nM.

And the ED50 (mice; [2])?
The ED50 was 0.1 mg/kg.

For OC[C@H]1O[C@@H](n2cnc3c(NN4CCCCC4)nc(F)nc32)[C@H](O)[C@@H]1O [Example 9, 2-Fluoro-N-(1-piperidinyl)adenosine], which Ki (adenosine A1 receptor) is on record?
The Ki was 4 nM.

And the “Ratio A2/A1” value (adenosine A1 receptor)?
Its value is 289.

What about the Ki (adenosine A2 receptor; [1]) of the same compound?
Its Ki is 1140 nM.

What about the ED50 (mice; [2]) of the same compound?
The ED50 was 0.7 mg/kg.

For OC[C@H]1O[C@@H](n2cnc3c(NN4CCCC(Oc5ccccc5)C4)nc(Cl)nc32)[C@H](O)[C@@H]1O (stereo partly shown) [Example 16, 2-Chloro-N-(3-phenoxy-1-piperidinyl)adenosine], which Ki (adenosine A1 receptor) is on record?
The Ki was 11 nM.

And the “Ratio A2/A1” value (adenosine A1 receptor)?
The value was 158.

And the Ki (adenosine A2 receptor; [1])?
The Ki was 1730 nM.

What about the ED50 (mice; [2]) of the same compound?
The ED50 was 1 mg/kg.

With OC[C@H]1O[C@@H](n2cnc3c(NN4CCC(Oc5ccccc5)CC4)nc(Cl)nc32)[C@H](O)[C@@H]1O [Example 17, 2-Chloro-N-[4-phenoxy-1-piperidinyl]adenosine] as the compound, how does the “Ratio A2/A1” value (adenosine A1 receptor) read?
The value was 857.

And the Ki (adenosine A2 receptor; [1])?
The Ki was 1200 nM.

What about the ED50 (mice; [2]) of the same compound?
Its ED50 is 0.9 mg/kg.

For CC(Cc1ccccc1)Nc1ncnc2c1ncn2[C@@H]1O[C@H](CO)[C@@H](O)[C@H]1O (stereo partly drawn) [L-PIA, N-(1-phenyl-2-propyl)adenosine, reference compound], which ED50 (mice) is on record?
The ED50 was 0.1 mg/kg.

Source: patent US5432164A, “C2,N^6 -disubstituted adenosine derivatives” (Novo Nordisk A/S, priority 1991, dated 1995)
